Laboratory results taken from ChEMBL document CHEMBL1121607, “A novel opioid receptor site directed alkylating agent with irreversible narcotic antagonistic and reversible agonistic activities” (J Med Chem, 1980).

Species on record: Cavia porcellus
Assay: Tested for potent reversible agonist activity on electrically stimulated guinea pig ileal longitudinal muscle preparation
Assay type: functional, organism-based
Conditions: Muscle tissue

Q: How did the IC50 turn out when `COC(=O)/C=C/C(=O)N[C@@H]1CC[C@@]2(O)[C@H]3Cc4ccc(O)c5c4[C@@]2(CCN3CC2CC2)[C@H]1O5` was run?
A: The IC50 was 4.8 nM.

Q: With `COC(=O)/C=C/C(=O)N[C@@H]1CC[C@@]2(O)C3Cc4ccc(O)c5c4C2(CCN3C)[C@H]1O5` (stereo partly drawn) as the compound, how does the IC50 read?
A: The IC50 was 27 nM.

Q: With `O=C1CC[C@@]2(O)[C@H]3Cc4ccc(O)c5c4[C@@]2(CCN3CC2CC2)[C@H]1O5` [NALTREXONE] as the compound, how does the IC50 read?
A: The IC50 was 50 nM.
